Results published in patent US20230270781A1, “TREATMENT OR PREVENTION OF PRO-INFLAMMATORY DISEASES OR CONDITIONS USING INDUCED REGULATORY T (ITREG) CELLS” (RAPA THERAPEUTICS, LLC, priority 2020, published 2023).

How the values were obtained:
Type in all cases: cell-based
[1] = tested on: human CD4+ and CD8+ T cells; assay: Luminex cytokine secretion in extended hybrid Th2/TREG culture (days 12, 20, 32); settings: for ability of T cells to secrete IL-5 / ability of T cells to secrete IL-13: inhibitor in TREG-Th2 re-differentiation culture: temsirolimus 1.0 µM or pemetrexed 10 nM
From the text: (§1) FIGS. 21A-21D illustrates that extended culture of de-differentiated T cells in the hybrid Th2/TREG polarization condition results in the generation of T cells expressing with a predominant Th2 cytokine phenotype: IL-4, IL-5, and IL-13 secretion. […] At days 12, 20, and 32 of culture, the T cells were harvested, washed, and restimulated with 3/28 beads (3:1 ratio) for 24 hr; the resultant supernatant was harvested and tested for cytokine content by Luminex multi-analyte method. All results shown are expressed as cytokine level in pg per ml per 1 × 10^6 cells/ml/24 hr. The Th2 cytokine IL-10 was also evaluated: all values were less than 20 pg/ml per 1 × 10^6 cells/ml/24 hr.
as §1, with “22A-22D illustrate” for “21A-21D illustrates”, “IL-2, IFN-γ,” for “IL-4, IL-5,”, “GM-CSF” for “IL-13”, “inflammatory cytokines IL-17 and TNF-α were” for “Th2 cytokine IL-10 was”

[2] = tested on: human CD4+ and CD8+ T cells; assay: Expansion of de-differentiated T cells in Th1, TREG or hybrid Th2/TREG polarization with or without pemetrexed
Procedure: Human CD4^+ and CD8^+ T cells were subjected to a 3-day de-differentiation procedure (“STEP 1”). […] In addition, the T cell culture in the presence of the variable polarization conditions was performed without the novel inhibitory molecule, pemetrexed (“0”) or in the presence of variable concentrations of pemetrexed, as indicated (10 nM [“10”]; 33 nM [“33”]; or 100 nM [“100”]. After a total of 10 days of culture, the n=24 cultures were harvested and live cells were enumerated and graphed above (y-axis indicated number of cells × 10^6; input cell number was 1.5 × 10^6 cells).

[3] = tested on: human CD4+ and CD8+ T cells; assay: Flow cytometry of FOXP3, Tbet, GATA3 in extended hybrid Th2/TREG culture (days 12, 20, 32)
From the text: To evaluate these transcription factors in our manufacturing method, T cells were first subjected to the step 1 de-differentiation procedure and then re-differentiated in the hybrid TREG-Th2 culture condition (IL-2, TGF-β, and IL-4). In addition, we compared the effects of pemetrexed with a classical mTOR inhibitor.
The iTREG phenotype is considered to be unstable; as such, we evaluated the stability of T cells re-differentiated using the hybrid TREG-Th2 culture condition at delayed time points, including days 20 and 32 of culture. In addition, to test phenotype stability in a rigorous manner, between day 24 and day 32 of culture, T cells received a high level of co-stimulation (3:1 bead-to-T cell ratio) and were propagated in media without cytokines or pharmacologic agents.
FIGS. 19A-19D illustrate that extended culture of de-differentiated T cells in the hybrid Th2/TREG polarization condition containing pemetrexed results in the generation of CD4^+ T cells expressing FOXP3 and GATA3 transcription factors. […] At days 12, 20, and 32 of culture, T cells were harvested and subjected to surface flow cytometry (CD4 marker) and intra-cellular staining for the following transcription factors, FOXP3, Tbet, and GATA3. The data above show the percent CD4 cells out of the total cultured population (FIG. 19A); the percent of CD4 cells that expressed the TREG transcription factor FOXP3 (FIG. 19B); the percent of CD4 cells that expressed the Th1 transcription factor Tbet (FIG. 19C); and the percent of CD4 cells that expressed the Th2 transcription factor GATA3 (FIG. 19D).
FIGS. 20A-20D illustrate that extended culture of de-differentiated T cells in the hybrid Th2/TREG polarization condition containing pemetrexed results in the generation of CD8^+ T cells expressing FOXP3 and GATA3 transcription factors. […] At days 12, 20, and 32 of culture, T cells were harvested and subjected to surface flow cytometry (CD8 marker) and intra-cellular staining for the following transcription factors, FOXP3, Tbet, and GATA3. […]

[4] = tested on: human CD4+ and CD8+ T cells; assay: T cell yield at day 13 after de-differentiation interval and re-stimulation without inhibitors; settings: column #7; temsirolimus reduced to 0.1 µM
Procedure: After 10 days (13 days of total culture), the T cells were harvested, enumerated, and evaluated by flow cytometry. FIG. 8 illustrates the effect of culture components during the de-differentiation interval on subsequent T cell yield (at day 13 of culture). […] After the 3-day interval, media was exchanged to fresh X-Vivo 20 without inhibitors, high-level co-stimulation was provided (3:1 bead-to-T cell ratio), and the T cell growth cytokines IL-2 (100 IU/ml) and IL-7 (10 ng/ml) were added. At day 13 of culture, viable T cells were enumerated and the overall yield is shown relative to day 0 input number.

[5] = tested on: human CD4+ and CD8+ T cells; assay: Western blot for Raptor, Rictor, p70S6K, SGK1 after 3-day de-differentiation culture; settings: relative to control culture without the three inhibitors; temsirolimus 1 µM, Vitamin D 0.03-1.0 nM, Daclizumab 50 µg/ml
From the text: After the 3-day culture interval, the T cells were harvested, and protein was isolated and subjected to western blot analysis for the mTORC1 complex protein, Raptor; the mTORC2 complex protein, Rictor; the post-mTORC1 protein p70S6K; the post-mTORC2 protein, SGK1; and the housekeeping gene, GAPDH.

[6] = tested on: human CD4+ and CD8+ T cells; assay: Western blot for mTORC1 complex protein Raptor after 3-day de-differentiation culture
From the text: After the 3-day culture interval, the T cells were harvested, and protein was isolated and subjected to western blot analysis for the mTORC1 complex protein, Raptor, and the housekeeping gene, Actin.

[7] = tested on: human CD4+ and CD8+ T cells; assay: RNA expression analysis (Luminex Quantigene) after 3-day de-differentiation culture; settings: relative to control Th1/Tc1 culture, temsirolimus 1 µM
Procedure: At the end of the de-differentiation interval, cells were harvested, RNA was isolated, and RNA expression analysis was performed by Luminex Quantigene method. All results shown represent relative RNA expression, with results normalized to a value of 1.0 for the Th1/Tc1 control culture.

[8] = tested on: human CD4+ and CD8+ T cells; assay: Western blot for pro-apoptosis molecule BIM after 3-day de-differentiation culture; settings: 1:3 bead-to-T cell ratio; temsirolimus, Vitamin D 0.1 nM, Daclizumab 50 µg/ml
From the text: After the 3-day culture interval, the T cells were harvested, and protein was isolated and subjected to western blot analysis for the pro-apoptosis-related gene, BIM, and the housekeeping gene, Actin.

[9] = 3-day culture, bead-to-T cell ratio 1:3, Vitamin D 0.1 or 1.0 nM

Nc1nc2[nH]cc(CCc3ccc(C(=O)N[C@@H](CCC(=O)O)C(=O)O)cc3)c2c(=O)[nH]1 [pemetrexed]
GM-CSF secretion ([1]; TREG-Th2 hybrid culture supplemented with pemetrexed 10 nM): higher degree | ability of T cells to secrete IL-5 [1]: fully preserved | ability of T cells to secrete IL-13 [1]: fully preserved | T cell number after re-differentiation in pure TREG polarization (IL-2 plus TGF-β without IL-4) ([2]; most stringent step 1, cultures #20 and #21, in the presence of pemetrexed): unsuccessful | T cell number after re-differentiation in TREG-Th2 polarization ([2]; step 1 temsirolimus, vitamin D, anti-IL-2 receptor antibody, pemetrexed 10 nM in step 2, 10 days): sufficient T cells | CD4 cells expressing GATA3 ([3]; end of culture, hybrid condition with pemetrexed 10 nM versus no inhibitor or temsirolimus): highest end-of-culture Th2-associated GATA3 expression | CD8+ T cells expressing TBET ([3]; hybrid condition in the presence of pemetrexed 10 nM): lowest levels | CD4 cells expressing TBET ([3]; hybrid polarization condition with pemetrexed 10 nM versus no inhibitor or temsirolimus): most consistently reduced TBET values

CO[C@H]1C[C@@H]2CC[C@@H](C)[C@@](O)(O2)C(=O)C(=O)N2CCCC[C@H]2C(=O)O[C@H]([C@H](C)C[C@@H]2CC[C@@H](OC(=O)C(C)(CO)CO)[C@H](OC)C2)CC(=O)[C@H](C)/C=C(\C)[C@@H](O)[C@@H](OC)C(=O)[C@H](C)C[C@H](C)/C=C/C=C/C=C/1C [temsirolimus]
ability of T cells to secrete IL-5 [1]: blunted | ability of T cells to secrete IL-13 [1]: blunted | T cell yield at day 13 with temsirolimus 0.1 µM [4]: reduced the resultant T cell yield | Rictor expression (western blot) [5]: effective | Raptor expression at temsirolimus 0.3 µM ([6]; culture 9, temsirolimus 0.3 µM, versus 1.0 µM): higher levels of Raptor expression | temsirolimus dose for optimal down-regulation of Raptor ([6]; in combination with Vitamin D): 1.0 µM | Granzyme B RNA expression [7, 9]: reduction | IFN-gamma RNA expression [7, 9]: reduction | IL-10 RNA expression [7, 9]: reduction | IL-7 receptor alpha RNA expression ([7]; Vitamin D 1.0 nM): capable of up-regulating | KLF4 RNA expression ([7]; Vitamin D 1.0 nM): neither temsirolimus nor Vitamin D alone increased | KLF10 RNA expression ([7]; Vitamin D 1.0 nM): acts alone to beneficially up-regulate | HIF-1-α RNA expression ([7]; Vitamin D 0.1 to 1.0 nM): did not down-regulate | Nanog transcription factor RNA expression ([7]; Vitamin D 0.1 to 1.0 nM): up-regulation | STAT1 RNA expression ([7]; Vitamin D 0.1 to 1.0 nM): acts alone to beneficially down-regulate | T-BET RNA expression ([7]; Vitamin D 0.1 to 1.0 nM): acts alone to beneficially down-regulate

B1: Daclizumab: anti-IL-2 receptor monoclonal antibody (antibody, chains of the INN, looked up, V domains shown)
VH: QVQLVQSGAEVKKPGSSVKVSCKASGYTFTSYRMHWVRQAPGQGLEWIGYINPSTGYTEYNQKFKDKATITADESTNTAYMELSSLRSEDTAVYYCARGGGVFDYWGQGTLVTVSS
VL: DIQMTQSPSTLSASVGDRVTITCSASSSISYMHWYQQKPGKAPKLLIYTTSNLASGVPARFSGSGSGTEFTLTISSLQPDDFATYYCHQRSTYPLTFGQGTKVEVK
Rictor expression (western blot) [5]: did not abrogate | BIM expression (western blot, normalized by actin) [8]: beneficial role in suppressing | Raptor expression (western blot, normalized by actin) ([6]; 1:3 bead-to-T cell ratio, temsirolimus 1.0 µM, Vitamin D 0.1 nM, daclizumab 50 µg/ml): beneficial role in suppressing
